Laboratory results as given in US12084430B2, “Tricyclic urea compounds as JAK2 V617F inhibitors” (Incyte Corporation, priority 2022, dated 2024).

What was measured:
[1] = test system: pSTAT5 signaling in SET-2 cells in whole blood; assay: pSTAT5 SET-2 whole blood MSD assay; format: cell-based; settings: Homo sapiens, pSTAT5, 2 hour, read-out: SET2 WB IC50
Procedure: Example F. pSTAT5 SET-2 Whole Blood MSD Assay
SET-2 cells shipped from ABS, RPMI1640 medium, Fetal Bovine Serum from Gibco, Phospho-STAT5a,b Whole Cell Lysate Kit from Mesoscale, Retronectin (Recombinant Human Fibronectin Fragment) from TaKaRa, 96 well cell culture plate flat bottom from Corning, lysis buffer from Cell Signaling Technology, and sterile PBS from Gibco. Whole Blood from by BioIVT.
SET-2 cells were cultured in RPMI media with 20% FBS at 37° C. humidified incubator supplied with 5% CO2. On the day of the assay, 40 uL per well of diluted retronectin working solution was added to sterile 96-well clear flat bottom tissue culture plates (1:200 dilution of retronectin in sterile PBS) and incubated at 37 C for 1 hour. After 1 hour, the retronectin working solution was aspirated and SET-2 cells were seeded at 100,000/well in RPMI+20% FBS. Cells were incubated overnight at 37° C. and 5% CO2. The next day, the medium was removed and 40 μL of diluted compounds in serum-free RPMI and whole blood was added to the cells for a 2 hour incubation at 37° C. and 5% CO2. The compound starting concentration is 20 μM and 2.5 fold serial diluted down to 0.21 nM. The whole blood and compound mixture was then aspirated off using the BlueCat plate washer and washed 1× with PBS. Cells were lysed by adding 40 μL of 3× complete lysis buffer and shaken at room temperature for 45-60 minutes (complete lysis buffer consists of Cell Signaling Technology lysis buffer diluted to 3× and supplemented with Mesoscale's protease inhibitor, phosphatase I inhibitor, and phosphatase II inhibitor). The pSTAT5 MSD plates were blocked by adding 150 μL of Blocker A solution per well to the MSD plates and incubated at room temperature with shaking at 400 rpm for one hour or longer. After blocking, plates were washed 3× with 300 μL/well of IX Tris Wash Buffer. After lysis, added 25 μL per well of lysed sample was added to MSD plate and incubated with shaking at 4° C. wrapped in foil overnight. The next day, plates were washed again and 25 μL/well of diluted 1× Detection Antibody Solution, wrapped in foil, and incubated at room temperature with shaking at 400 rpm for 1 hour. Plates were then washed again and lastly, 150 μL/well of 1× Read Buffer T was added to all wells. Plates were analyzed on MSD Discovery within 5 minutes. […] Data analysis was performed in GraphPad Prism using a 4-parameter fit and data was reported as Average±SD.

[2] = In vitro intrinsic clearance; format: in vitro ADME; settings: human liver microsomes, 1 μM
Procedure: Example G. In Vitro Intrinsic Clearance Protocol
For in vitro metabolic stability experiments, test compounds were incubated with human liver microsomes at 37° C. The incubation mixture contained test compounds (1 μM), NADPH (2 mM), and human liver microsomes (0.5 mg protein/mL) in 100 mM phosphate buffer (pH 7.4). The mixture was pre-incubated for 2 min at 37° C. before the addition of NADPH. Reactions were commenced upon the addition of NADPH and quenched with ice-cold methanol at 0, 10, 20, and 30 min. Terminated incubation mixtures were analyzed using LC-MS/MS system. The analytical system consisted of a Shimadzu LC-30AD binary pump system and SIL-30AC autosampler (Shimadzu Scientific Instruments, Columbia, MD) coupled with a Sciex Triple Quad 6500+ mass spectrometer from Applied Biosystems (Foster City, CA). […] Mobile phase A consisted of 0.1% formic acid in water, and mobile phase B consisted of 0.1% formic acid in acetonitrile. The total LC-MS/MS runtime was 2.75 minutes with a flow rate of 0.75 mL/min. Peak area integrations and peak area ratio calculations were performed using Analyst software (version 1.6.3) from Applied Biosystems.
The in vitro intrinsic clearance, CLint, in vitro, was calculated from the t1/2 of test compound disappearance as CLint, in vitro=(0.693/t1/2)×(1/Cprotein), where Cprotein is the protein concentration during the incubation, and t1/2 was determined by the slope (k) of the log-linear regression analysis of the concentration versus time profiles; thus, t1/2=ln 2/k. The CLint, in vitro values were scaled to the in vivo values for human by using physiologically based scaling factors, hepatic microsomal protein concentrations (45 mg protein/g liver), and liver weights (21 g/kg body weight). The equation CLint=CLint, in vitro×(mg protein/g liver weight)×(g liver weight/kg body weight) was used. The in vivo hepatic clearance (CLH) was then calculated by using CLint and hepatic blood flow, Q (20 mL·min^−1·kg^−1 in humans) in the well-stirred liver model disregarding all binding from CLH=(Q×CLint)/(Q+CLint). The hepatic extraction ratio was calculated as CLH divided by Q.

[3] = test system: STAT5 (Tyr694) phosphorylation in SET-2 cells; assay: STAT5 (Tyr694) phosphorylation cell based assay; settings: Homo sapiens, pSTAT5, 2 hours, read-out: SET2 IC50
Procedure: Example E. STAT5 (Tyr694) Phosphorylation Cell Based Assay
SET-2 cells was purchased from DSMZ (Germany). RPMI1640 medium, Fetal Bovine Serum and 384-white sold flat-bottom small volume plate were purchased from Thermo Fisher Scientific (Waltham, MA). Phospho-STAT5 (Tyr694) HTRF kit was purchased from Perkin Elmer (Waltham, MA).
SET-2 cells were cultured in RPMI media with 20% FBS at 37° C. in humidified incubator supplied with 5% CO2. On the day of assay, the cells were centrifuged to remove the culture media and resuspended with prewarmed RPMI with 10% FBS. Testing compounds were prepared by serial dilution in DMSO and 50 nL/well test compounds were transferred to the 384 white low volume cell culture plate (Greiner Bio-one) by ECHO liquid handler (Labcyte). The cells were then dispensed with Multidrop (Thermo Fisher, Waltham, MA) at 10 μL/well (7×10^6 cells/mL) with 0.5% DMSO in the final assay. After the treated cells were incubated for 2 hours at 37° C./5% CO2 incubator, 4 μL/well supplemented lysis buffer (100× blocking buffer diluted 25 fold in 4× lysis buffer, Perkin Elmer) were added and incubated at room temperature for 90 min on orbital shaker at 600 rpm. Phospho-STAT5 Cryptate antibody and Phospho-STAT5 d2 antibody (1:1 vol/vol) were premixed and diluted 20 fold with in the detection buffer (Perkin Elmer). 4 μL of the premixed antibody solution were added to each well followed with 24 hours incubation at room temperature on orbital shaker at 600 rpm. The product activity was determined by measuring the fluorescence at 620 nm and 665 nm on Pherastar microplate reader (BMG Labtech). A ratio is calculated (665/620) for each well. Wells with DMSO only served as the positive controls and wells containing high concentration of control compound were used as negative controls. IC50 determination was performed by fitting the curve of percent control activity versus the log of the compound concentration using the GraphPad Prism 7.0 software.

Row | Compound | IC50 [1] [nM] | h-IntCL [2] | IC50 [3] [nM]
1 | COc1nn(C)cc1-c1[nH]c2ncc3c(c2c1-c1ccc2c(cnn2C)c1)n(C1CCOCC1)c(=O)n3C [A, reference compound] | > 7500 | ‡ ‡ ‡ (h-IntCL of >1 L/h/kg) | > 800
2 | [2H]C([2H])([2H])n1ncc2cc(-c3c(-c4cn(C)nc4OC)[nH]c4ncc5c(c34)n(C3CCOCC3)c(=O)n5C)ccc21 [B, reference compound] | > 7500 | ‡ ‡ (h-IntCL of ≥0.7 L/h/kg to ≤1 L/h/kg) | > 800
3 | COc1nn(C)cc1-c1[nH]c2ncc3c(c2c1-c1ccc2c(cnn2C)c1)n([C@H]1CC[C@@H](CC#N)CC1)c(=O)n3C [E, reference compound] | – | ‡ ‡ ‡ (h-IntCL of >1 L/h/kg) | 300 to 800
4 | COC(=O)N[C@@H]1CC[C@@H](n2c(=O)n(C)c3cnc4[nH]c(-c5cn(C)nc5OC)c(-c5ccc(F)cc5)c4c32)C1 [Example 1, Methyl ((1R,3R)-3-(8-(4-fluorophenyl)-7-(3-methoxy-1-methyl-1H-pyrazol-4-yl)-3-methyl-2-oxo-3,6-dihydroimidazo[4,5-d]pyrrolo[2,3-b]pyridin-1(2H)-yl)cyclopentyl)carbamate] | 2500 to 5000 | ‡ ‡ (h-IntCL of ≥0.7 L/h/kg to ≤1 L/h/kg) | > 800
5 | COC(=O)N[C@@H]1CC[C@@H](n2c(=O)n(C)c3cnc4[nH]c(-c5cn(C)nc5OC)c(-c5ccccc5)c4c32)C1 [Example 2, Methyl ((1R,3R)-3-(7-(3-methoxy-1-methyl-1H-pyrazol-4-yl)-3-methyl-2-oxo-8-phenyl-3,6-dihydroimidazo[4,5-d]pyrrolo[2,3-b]pyridin-1(2H)-yl)cyclopentyl)carbamate] | 2500 to 5000 | ‡ ‡ (h-IntCL of ≥0.7 L/h/kg to ≤1 L/h/kg) | 300 to 800
6 | COC(=O)N[C@@H]1CC[C@@H](n2c(=O)n(C)c3cnc4[nH]c(-c5cn(C)nc5OC)c(-c5cccc(F)c5)c4c32)C1 [Example 3, Methyl ((1R,3R)-3-(8-(3-fluorophenyl)-7-(3-methoxy-1-methyl-1H-pyrazol-4-yl)-3-methyl-2-oxo-3,6-dihydroimidazo[4,5-d]pyrrolo[2,3-b]pyridin-1(2H)-yl)cyclopentyl)carbamate] | 5000 to 7500 | ‡ ‡ (h-IntCL of ≥0.7 L/h/kg to ≤1 L/h/kg) | 300 to 800
7 | COC(=O)N[C@@H]1CC[C@@H](n2c(=O)n(C)c3cnc4[nH]c(-c5cn(C)nc5OC)c(-c5ccc(OC)c(F)c5)c4c32)C1 [Example 4, Methyl ((1R,3R)-3-(8-(3-fluoro-4-methoxyphenyl)-7-(3-methoxy-1-methyl-1H-pyrazol-4-yl)-3-methyl-2-oxo-3,6-dihydroimidazo[4,5-d]pyrrolo[2,3-b]pyridin-1(2H)-yl)cyclopentyl)carbamate] | ≤ 2500 | ‡ (h-IntCL of <0.7 L/h/kg) | 300 to 800
8 | [2H]C([2H])([2H])n1ncc2cc(-c3c(-c4cn(C)nc4OC)[nH]c4ncc5c(c34)n([C@@H]3CC[C@@H](NC(=O)OC)C3)c(=O)n5C)ccc21 [Example 5, Methyl ((1R,3R)-3-(7-(3-methoxy-1-methyl-1H-pyrazol-4-yl)-3-methyl-8-(1-(methyl-d3)-1H-indazol-5-yl)-2-oxo-3,6-dihydroimidazo[4,5-d]pyrrolo[2,3-b]pyridin-1(2H)-yl)cyclopentyl)carbamate] | ≤ 2500 | ‡ (h-IntCL of <0.7 L/h/kg) | ≤ 300
9 | [2H]C([2H])([2H])n1cc(-c2[nH]c3ncc4c(c3c2-c2ccc3c(cnn3C([2H])([2H])[2H])c2)n([C@@H]2CC[C@@H](NC(=O)OC)C2)c(=O)n4C([2H])([2H])[2H])c(F)n1 [Example 6, Methyl ((1R,3R)-3-(7-(3-fluoro-1-(methyl-d3)-1H-pyrazol-4-yl)-3-(methyl-d3)-8-(1-(methyl-d3)-1H-indazol-5-yl)-2-oxo-3,6-dihydroimidazo[4,5-d]pyrrolo[2,3-b]pyridin-1(2H)-yl)cyclopentyl)carbamate] | ≤ 2500 | ‡ ‡ (h-IntCL of ≥0.7 L/h/kg to ≤1 L/h/kg) | ≤ 300
10 | [2H]C([2H])([2H])n1cc(-c2[nH]c3ncc4c(c3c2-c2ccc(F)cc2)n([C@@H]2CC[C@@H](NC(=O)OC)C2)c(=O)n4C([2H])([2H])[2H])c(F)n1 [Example 7, Methyl ((1R,3R)-3-(7-(3-fluoro-1-(methyl-d3)-1H-pyrazol-4-yl)-8-(4-fluorophenyl)-3-(methyl-d3)-2-oxo-3,6-dihydroimidazo[4,5-d]pyrrolo[2,3-b]pyridin-1(2H)-yl)cyclopentyl)carbamate] | 2500 to 5000 | ‡ (h-IntCL of <0.7 L/h/kg) | 300 to 800
11 | [2H]C([2H])([2H])n1cc(-c2[nH]c3ncc4c(c3c2-c2ccc3c(c2)COC3(C)C)n([C@@H]2CC[C@@H](NC(=O)OC)C2)c(=O)n4C([2H])([2H])[2H])c(F)n1 [Example 8, Methyl ((1R,3R)-3-(8-(1,1-dimethyl-1,3-dihydroisobenzofuran-5-yl)-7-(3-fluoro-1-(methyl-d3)-1H-pyrazol-4-yl)-3-(methyl-d3)-2-oxo-3,6-dihydroimidazo[4,5-d]pyrrolo[2,3-b]pyridin-1(2H)-yl)cyclopentyl)carbamate] | ≤ 2500 | ‡ (h-IntCL of <0.7 L/h/kg) | ≤ 300
12 | [2H]C([2H])([2H])Oc1ccc(-c2c(-c3cn(C([2H])([2H])[2H])nc3F)[nH]c3ncc4c(c23)n([C@@H]2CC[C@@H](NC(=O)OC)C2)c(=O)n4C([2H])([2H])[2H])cc1 [Example 9, Methyl ((1R,3R)-3-(7-(3-fluoro-1-(methyl-d3)-1H-pyrazol-4-yl)-8-(4-(methoxy-d3)phenyl)-3-(methyl-d3)-2-oxo-3,6-dihydroimidazo[4,5-d]pyrrolo[2,3-b]pyridin-1(2H)-yl)cyclopentyl)carbamate] | 2500 to 5000 | ‡ ‡ (h-IntCL of ≥0.7 L/h/kg to ≤1 L/h/kg) | ≤ 300
